# According to patent publication US20240389528A1, “PERFORMANCE GAIN IN ALS INHIBITOR HERBICIDE TOLERANT BETA VULGARIS PLANTS BY COMBINATION OF BEST FITTING ALS LARGE AND SMALL SUBUNITS” (BAYER AKTIENGESELLSCHAFT, priority 2021, published 2024):
# System: B. vulgaris plants comprising the BvALS_W569L allele
# Assay: Sensitivity of Beta vulgaris plants to ALS inhibitor herbicide (BvALS_W569L allele vs wild type allele)
# Assay type: in vivo
compound,measurement,value
COc1cc(OC)nc(NC(=O)NS(=O)(=O)c2cc(NC=O)ccc2C(=O)N(C)C)n1 [foramsulfuron],times less sensitive to the ALS inhibitor herbicide compared to B. vulgaris plants comprising a BvALS wild type allele,at least 2000 times
